# In US11724992B2 (Novartis AG, priority 2017, dated 2023):
# Test system: IL-1β production in PMA-differentiated THP-1 cells
# Assay: IL-1β production in PMA-differentiated THP-1 cells stimulated with gramicidin (hTHP-1 assay, 2% fetal bovine serum; Procedures 1-3)
# Assay type: cell-based, human
# Settings: hTHP-1 assay containing 2% fetal bovine serum; class symbols; read-out: hTHP-1 IC50 (Average IC50 of compounds in hTHP-1 assay)
# Summary of the method: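 Readout is HTRF of IL-1β in cell-free supernatant after 2 h gramicidin (5 μM) challenge. Cells: THP-1 differentiated with PMA 20 ng/ml for 16-18 h, plated 50,000/well in 2% FBS RPMI, exposed to compound 1 h beforehand at final 100–0.0017 μM, DMSO 0.37%.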
row,SMILES,IC50
1,"Cc1sc(S(N)(=O)=NC(=O)Nc2c3c(cc4c2CCC4)CCC3)nc1C(C)(C)O (single isomer, unassigned) [Example 359, (R) or (S)-N′-((1,2,3,5,6,7-hexahydro-s-indacen-4-yl)carbamoyl)-4-(2-hydroxypropan-2-yl)-5-methylthiazole-2-sulfonimidamide]",8 to 40 nM
2,"Cc1sc(S(N)(=O)=NC(=O)Nc2c3c(cc4c2CCC4)CCC3)nc1C(C)(C)O (single isomer, unassigned) [Example 360, (S) or (R)-N′-((1,2,3,5,6,7-hexahydro-s-indacen-4-yl)carbamoyl)-4-(2-hydroxypropan-2-yl)-5-methylthiazole-2-sulfonimidamide]",200 to 1000 nM
3,"CN(C)C(C)(C)c1ccc(S(N)(=O)=NC(=O)Nc2c3c(cc4c2CCC4)CCC3)cc1 (single isomer, unassigned) [Example 361, (R) or (S)-4-(2-(dimethylamino)propan-2-yl)-N′-((1,2,3,5,6,7-hexahydro-s-indacen-4-yl)carbamoyl)benzenesulfonimidamide]",40 to 200 nM
4,"CN(C)C(C)(C)c1ccc(S(N)(=O)=NC(=O)Nc2c3c(cc4c2CCC4)CCC3)cc1 (single isomer, unassigned) [Example 362, (S) or (R)-4-(2-(dimethylamino)propan-2-yl)-N′-((1,2,3,5,6,7-hexahydro-s-indacen-4-yl)carbamoyl)benzenesulfonimidamide]",1000 to 5000 nM
5,"CC(C)(O)c1ncc(S(N)(=O)=NC(=O)Nc2c3c(cc4c2C(=O)CC4)CCC3)s1 (single isomer, unassigned) [Example 363, (S) or (R)-2-(2-Hydroxypropan-2-yl)-N′-((3-oxo-1,2,3,5,6,7-hexahydro-s-indacen-4-yl)carbamoyl)thiazole-5-sulfonimidamide]",1000 to 5000 nM
6,"CC(C)(O)c1ncc(S(N)(=O)=NC(=O)Nc2c3c(cc4c2C(=O)CC4)CCC3)s1 (single isomer, unassigned) [Example 364, (R) or (S)-2-(2-Hydroxypropan-2-yl)-N′-((3-oxo-1,2,3,5,6,7-hexahydro-s-indacen-4-yl)carbamoyl)thiazole-5-sulfonimidamide]",40 to 200 nM
7,"CC(c1ccc(S(N)(=O)=NC(=O)Nc2c3c(cc4c2CCC4)CCC3)cc1)N(C)C (single isomer, unassigned) [Example 371, (S) or (R)-4-(1-(dimethylamino)ethyl)-N′-((1,2,3,5,6,7-hexahydro-s-indacen-4-yl)carbamoyl)benzenesulfonimidamide]",5000 to 30000 nM
8,"CC(c1ccc(S(N)(=O)=NC(=O)Nc2c3c(cc4c2CCC4)CCC3)cc1)N(C)C (single isomer, unassigned) [Example 372, (R) or (S)-4-(1-(dimethylamino)ethyl)-N′-((1,2,3,5,6,7-hexahydro-s-indacen-4-yl)carbamoyl)benzenesulfonimidamide]",40 to 200 nM
9,"CNS(=O)(=NC(=O)Nc1c2c(cc3c1CCC3)CCC2)c1cnc(C(C)(C)O)s1 (single isomer, unassigned) [Example 373, (R) or (S)-N′-((1,2,3,5,6,7-hexahydro-s-indacen-4-yl)carbamoyl)-2-(2-hydroxypropan-2-yl)-N-methylthiazole-5-sulfonimidamide]",5000 to 30000 nM
10,"CNS(=O)(=NC(=O)Nc1c2c(cc3c1CCC3)CCC2)c1cnc(C(C)(C)O)s1 (single isomer, unassigned) [Example 374, (S) or (R)-N′-((1,2,3,5,6,7-hexahydro-s-indacen-4-yl)carbamoyl)-2-(2-hydroxypropan-2-yl)-N-methylthiazole-5-sulfonimidamide]",8 to 40 nM
11,"CC(c1ccc(S(N)(=O)=NC(=O)Nc2c3c(cc4c2CCC4)CCC3)cc1)N(C)C (single isomer, unassigned) [Example 375, (S,R) or (S,S) or (R,S) or (R,R)-4-(1-(dimethylamino)ethyl)-N′-((1,2,3,5,6,7-hexahydro-s-indacen-4-yl)carbamoyl)benzenesulfonimidamide]",5000 to 30000 nM
12,"CC(c1ccc(S(N)(=O)=NC(=O)Nc2c3c(cc4c2CCC4)CCC3)cc1)N(C)C (single isomer, unassigned) [Example 376, (S,S) or (S,R) or (R,R) or (R,S)-4-(1-(dimethylamino)ethyl)-N′-((1,2,3,5,6,7-hexahydro-s-indacen-4-yl)carbamoyl)benzenesulfonimidamide]",5000 to 30000 nM
13,"CC(c1ccc(S(N)(=O)=NC(=O)Nc2c3c(cc4c2CCC4)CCC3)cc1)N(C)C (single isomer, unassigned) [Example 377, (R,R) or (R,S) or (S,S) or (S,R)-4-(1-(dimethylamino)ethyl)-N′-((1,2,3,5,6,7-hexahydro-s-indacen-4-yl)carbamoyl)benzenesulfonimidamide]",40 to 200 nM
14,"CC(c1ccc(S(N)(=O)=NC(=O)Nc2c3c(cc4c2CCC4)CCC3)cc1)N(C)C (single isomer, unassigned) [Example 378, (R,S) or (R,R) or (S,R) or (S,S)-4-(1-(dimethylamino)ethyl)-N′-((1,2,3,5,6,7-hexahydro-s-indacen-4-yl)carbamoyl)benzenesulfonimidamide]",200 to 1000 nM
15,"CN(C)Cc1cc(F)c(S(N)(=O)=NC(=O)Nc2c3c(cc4c2CCC4)CCC3)s1 (single isomer, unassigned) [Example 381, (R) or (S)-5-((dimethylamino)methyl)-3-fluoro-N′-((1,2,3,5,6,7-hexahydro-s-indacen-4-yl)carbamoyl)thiophene-2-sulfonimidamide]",8 to 40 nM
16,"CN(C)Cc1cc(F)c(S(N)(=O)=NC(=O)Nc2c3c(cc4c2CCC4)CCC3)s1 (single isomer, unassigned) [Example 382, (S) or (R)-5-((dimethylamino)methyl)-3-fluoro-N′-((1,2,3,5,6,7-hexahydro-s-indacen-4-yl)carbamoyl)thiophene-2-sulfonimidamide]",1000 to 5000 nM
17,"CC(C)(O)c1cc(F)c(S(N)(=O)=NC(=O)Nc2c3c(cc4c2CCC4)CCC3)s1 (single isomer, unassigned) [Example 385, (R) or (S)-3-fluoro-N′-((1,2,3,5,6,7-hexahydro-s-indacen-4-yl)carbamoyl)-5-(2-hydroxypropan-2-yl)thiophene-2-sulfonimidamide]",8 to 40 nM
18,"CC(C)(O)c1cc(F)c(S(N)(=O)=NC(=O)Nc2c3c(cc4c2CCC4)CCC3)s1 (single isomer, unassigned) [Example 386, (S) or (R)-3-fluoro-N′-((1,2,3,5,6,7-hexahydro-s-indacen-4-yl)carbamoyl)-5-(2-hydroxypropan-2-yl)thiophene-2-sulfonimidamide]",200 to 1000 nM
19,"COC(C)(C)c1ncc(S(N)(=O)=NC(=O)Nc2c3c(cc4c2CCC4)CCC3)s1 (single isomer, unassigned) [Example 387, (S) or (R)-N′-((1,2,3,5,6,7-hexahydro-s-indacen-4-yl)carbamoyl)-2-(2-methoxypropan-2-yl)thiazole-5-sulfonimidamide]",1000 to 5000 nM
20,"COC(C)(C)c1ncc(S(N)(=O)=NC(=O)Nc2c3c(cc4c2CCC4)CCC3)s1 (single isomer, unassigned) [Example 388, (R) or (S)-N′-((1,2,3,5,6,7-hexahydro-s-indacen-4-yl)carbamoyl)-2-(2-methoxypropan-2-yl)thiazole-5-sulfonimidamide]",40 to 200 nM
